Reference: patent US20220298146A1, “HETEROCYCLIC DERIVATIVE AND USE THEREOF” (Transthera Sciences (Nanjing), Inc., priority 2019, published 2022)

biological target: T1, Mer (h) (Homo sapiens, UniProt Q12866); assay: Enzymatic activity assay, Mer (h) kinase, [γ-33P]-ATP; format: biochemical; settings: 10 μM [γ-33P]-ATP, 40 min, room temperature; read-out: Inhibitory Activity on Mer (h), IC50
T1 construct: purchased
T1 sequence (Q12866 21-999): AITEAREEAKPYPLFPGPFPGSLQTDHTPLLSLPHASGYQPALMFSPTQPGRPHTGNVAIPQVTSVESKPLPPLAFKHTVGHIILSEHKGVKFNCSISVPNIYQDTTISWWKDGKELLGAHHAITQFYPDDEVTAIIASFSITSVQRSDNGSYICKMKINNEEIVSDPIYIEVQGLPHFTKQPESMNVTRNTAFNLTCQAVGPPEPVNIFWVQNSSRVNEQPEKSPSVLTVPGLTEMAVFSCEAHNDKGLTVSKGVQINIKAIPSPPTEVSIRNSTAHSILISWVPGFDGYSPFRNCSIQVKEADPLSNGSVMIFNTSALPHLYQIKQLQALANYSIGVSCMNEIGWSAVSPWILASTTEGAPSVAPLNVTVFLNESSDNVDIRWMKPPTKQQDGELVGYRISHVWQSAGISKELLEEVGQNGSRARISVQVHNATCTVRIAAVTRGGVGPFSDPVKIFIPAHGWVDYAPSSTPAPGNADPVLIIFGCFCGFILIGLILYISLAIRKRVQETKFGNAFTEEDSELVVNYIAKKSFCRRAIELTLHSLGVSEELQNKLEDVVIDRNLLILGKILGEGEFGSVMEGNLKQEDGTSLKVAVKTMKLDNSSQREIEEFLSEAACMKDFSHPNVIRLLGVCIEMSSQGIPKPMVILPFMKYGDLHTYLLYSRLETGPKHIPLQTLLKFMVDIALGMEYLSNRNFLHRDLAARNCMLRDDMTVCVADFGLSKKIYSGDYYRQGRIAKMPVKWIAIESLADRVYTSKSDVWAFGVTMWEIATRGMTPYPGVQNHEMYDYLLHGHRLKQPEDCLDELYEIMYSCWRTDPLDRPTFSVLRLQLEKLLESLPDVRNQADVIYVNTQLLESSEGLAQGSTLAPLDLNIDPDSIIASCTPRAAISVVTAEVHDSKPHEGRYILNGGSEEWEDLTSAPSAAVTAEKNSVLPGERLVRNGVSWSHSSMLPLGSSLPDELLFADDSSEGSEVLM
Method: Test samples: the compounds of the present invention, having structures and preparation methods shown above.
(1) Preparation of Compound Stock Solutions
Compounds were each dissolved in 100% DMSO to prepare stock solutions with a maximum concentration of 500 μM.
(2) Preparation of Compound Working Solutions
The compound stock solutions were diluted to final concentrations of 500 μM, 150 μM, 50 μM, 15 μM, 5 μM, 1.5 μM, 0.5 μM, 0.15 μM and 0.05 μM to prepare compound working solutions (50×).
(3) Preparation of different enzymatic reaction solutions
Mer (h) enzyme was dissolved in a mixture of 8 mM MOPS (pH 7.0), 0.2 mM EDTA, 30 mM NaCl and 250 μM GGMEDIYFEFMGGKKK to prepare an enzyme solution with a final concentration of 3.1 nM. An Mg/ATP mixture of 10 mM magnesium acetate and 10 μM [γ-^33P]-ATP was used to activate the enzymatic reaction.
The compound working solutions were added to a 384-well plate, with final concentrations of 10000 nM, 3000 nM, 1000 nM, 300 nM, 100 nM, 30 nM, 10 nM, 3 nM and 1 nM, respectively, and then different enzymatic reaction solutions prepared according to the above conditions were added. The reaction solutions were incubated at room temperature for 40 min, and then 0.5% phosphoric acid solutions were added to terminate the reaction. 10 μL of the reaction solution was added dropwise to P30 filter paper which was washed 4 times with a 0.425% phosphoric acid solution and once with methanol and then placed in a scintillation counter for detection. Gray analysis was performed on the results with Image J software, and IC50 values were calculated with GraphPad 5.0 software.

For CC(C)n1cc(-c2ccc(F)cc2)c(=O)c(C(=O)Nc2ccc(Oc3ccnc(N)c3Cl)cn2)n1 [Compound 11, N-(5-((2-amino-3-chloropyridin-4-yl)oxy)pyridin-2-yl)-5-(4-fluorophenyl)-1-isopropyl-4-oxo-1,4-dihydropyridazine-3-carboxamide], which IC50 is on record?
Its IC50 is 9 nM.

CC(C)n1cc(-c2ccc(F)cc2)c(=O)c(C(=O)Nc2ncc(Oc3ccnc(N)c3Cl)cn2)n1 [Compound 12, N-(5-((2-amino-3-chloropyridin-4-yl)oxy)pyrimidin-2-yl)-5-(4-fluorophenyl)-1-isopropyl-4-oxo-1,4-dihydropyridazine-3-carboxamide] was tested. Which IC50 did it give?
The IC50 was 8 nM.

CC(C)n1cc(-c2ccc(F)cc2)c(=O)c(C(=O)Nc2ccc(Oc3ccnc(N)c3Cl)nc2)n1 [Compound 13, N-(6-((2-amino-3-chloropyridin-4-yl)oxy)pyridin-3-yl)-5-(4-fluorophenyl)-1-isopropyl-4-oxo-1,4-dihydropyridazine-3-carboxamide] was tested. Which IC50 did it give?
The IC50 was 8 nM.

Which IC50 does the source give for Nc1nccc(Oc2ccc(NC(=O)c3nn(C4CC4)cc(-c4ccc(F)cc4)c3=O)nc2)c1Cl [Compound 17, N-(5-((2-amino-3-chloropyridin-4-yl)oxy)pyridin-2-yl)-1-cyclopropyl-5-(4-fluorophenyl)-4-oxo-1,4-dihydropyridazine-3-carboxamide] here?
The IC50 was 2 nM.

With Nc1nccc(Oc2cnc(NC(=O)c3nn(C4CC4)cc(-c4ccc(F)cc4)c3=O)nc2)c1Cl [Compound 18, N-(5-((2-amino-3-chloropyridin-4-yl)oxy)pyrimidin-2-yl)-5-(4-fluorophenyl)-1-cyclopropyl-4-oxo-1,4-dihydropyridazine-3-carboxamide] as the compound, how does the IC50 read?
The IC50 was 6 nM.

Nc1nccc(Oc2ccc(NC(=O)c3nn(C4CC4)cc(-c4ccc(F)cc4)c3=O)cn2)c1Cl [Compound 19, N-(6-((2-amino-3-chloropyridin-4-yl)oxy)pyridin-3-yl)-1-cyclopropyl-5-(4-fluorophenyl)-4-oxo-1,4-dihydropyridazine-3-carboxamide] was tested. Which IC50 did it give?
Its IC50 is 18 nM.

Cn1cc(-c2ccc(F)cc2)c(=O)c(C(=O)Nc2ccc(Oc3ccnc(N)c3Cl)cn2)n1 [Compound 33, N-(5-((2-amino-3-chloropyridin-4-yl)oxy)pyridin-2-yl)-5-(4-fluorophenyl)-1-methyl-4-oxo-1,4-dihydropyridazine-3-carboxamide] was tested. Which IC50 did it give?
Its IC50 is 3 nM.

C=CCn1cc(-c2ccc(F)cc2)c(=O)c(C(=O)Nc2ccc(Oc3ccnc(N)c3Cl)cn2)n1 [Compound 35, 1-allyl-N-(5-((2-amino-3-chloropyridin-4-yl)oxy)pyridin-2-yl)-5-(4-fluorophenyl)-4-oxo-1,4-dihydropyridazine-3-carboxamide] was tested. Which IC50 did it give?
Its IC50 is 4 nM.

How did the IC50 turn out when C=CCn1cc(-c2ccc(F)cc2)c(=O)c(C(=O)Nc2ncc(Oc3ccnc(N)c3Cl)cn2)n1 [Compound 37] was run?
The IC50 was 7 nM.

For C=CCn1cc(-c2ccc(F)cc2)c(=O)c(C(=O)Nc2ccc(Oc3ccnc(N)c3Cl)nc2)n1 [Compound 39, 1-allyl-N-(6-((2-amino-3-chloropyridin-4-yl)oxy)pyridin-3-yl)-5-(4-fluorophenyl)-4-oxo-1,4-dihydropyridazine-3-carboxamide], which IC50 is on record?
Its IC50 is 3 nM.
